Measured values reported in ChEMBL document CHEMBL1157039, “Synthesis and characterization of novel fatty acid analogs of cholesterol: in vitro antimicrobial activity” (2010).
Converted amounts (≈) assume the structure as drawn.

Experiments:
Candida parapsilosis [1] = assay: Antifungal activity against Candida parapsilosis ATCC 22019 after 48 to 72 hrs by microdilution method; assay type: functional; details: Lodderomyces parapsilosis
Candida albicans [2] = assay: Antifungal activity against Candida albicans ATCC 24433 after 48 to 72 hrs by microdilution method; assay type: functional
Candida parapsilosis [3] = assay: Antifungal activity against Candida parapsilosis ATCC 22019 after 48 to 72 hrs by disk diffusion method; assay type: functional
Escherichia coli [4] = assay: Antibacterial activity against Escherichia coli ATCC 25922 after 24 hrs by microdilution method; assay type: functional; details: ATCC 25922, 24 h
Pichia kudriavzevii [5] = assay: Antifungal activity against Candida krusei ATCC 6528 after 48 to 72 hrs by disk diffusion method; assay type: functional; further: test concentration or dose not given here
Cryptococcus neoformans [6] = assay: Antifungal activity Cryptococcus neoformans after 48 to 72 hrs by microdilution method; assay type: functional
Pichia kudriavzevii [7] = assay: Antifungal activity against Candida krusei ATCC 6528 after 48 to 72 hrs by microdilution method; assay type: functional
Candida albicans [8] = assay: Antifungal activity against Candida albicans ATCC 24433 after 48 to 72 hrs by disk diffusion method; assay type: functional; further: test concentration or dose not given here
Streptococcus mutans [9] = assay: Antibacterial activity against Streptococcus mutans UA159 MTCC 497 after 24 hrs by microdilution method; assay type: functional; details: UA159 MTCC 497, 24 h
Streptococcus pyogenes [10] = assay: Antibacterial activity against recultured Streptococcus pyogenes after 24 hrs by microdilution method; assay type: functional
Staphylococcus aureus [11] = assay: Antibacterial activity against Staphylococcus aureus ATCC 25923 after 24 hrs by microdilution method; assay type: functional; details: ATCC 25923, 24 h
Streptococcus mutans [12] = assay: Antibacterial activity against Streptococcus mutans UA159 MTCC 497 after 24 hrs by disk diffusion method; assay type: functional
Staphylococcus aureus [13] = assay: Antibacterial activity against Staphylococcus aureus ATCC 25923 after 24 hrs by disk diffusion method; assay type: functional
Streptococcus pyogenes [14] = assay: Antibacterial activity against recultured Streptococcus pyogenes after 24 hrs by disk diffusion method; assay type: functional
Cryptococcus neoformans [15] = assay: Antifungal activity Cryptococcus neoformans after 48 to 72 hrs by disk diffusion method; assay type: functional; further: test concentration or dose not given here
Pseudomonas aeruginosa [16] = assay: Antibacterial activity against Pseudomonas aeruginosa ATCC 27853 after 24 hrs by disk diffusion method; assay type: functional
Salmonella enterica [17] = assay: Antibacterial activity against recultured Salmonella Typhimurium after 24 hrs by microdilution method; assay type: functional, Salmonella enterica subsp. enterica serovar Typhimurium
Salmonella enterica [18] = assay: Antibacterial activity against recultured Salmonella Typhimurium after 24 hrs by disk diffusion method; assay type: functional, Salmonella enterica subsp. enterica serovar Typhimurium
Pseudomonas aeruginosa [19] = assay: Antibacterial activity against Pseudomonas aeruginosa ATCC 27853 after 24 hrs by microdilution method; assay type: functional; details: ATCC 27853, 24 h
Escherichia coli [20] = assay: Antibacterial activity against Escherichia coli ATCC 25922 after 24 hrs by disk diffusion method; assay type: functional

| SMILES | MIC (Candida parapsilosis [1]) | MIC (Candida albicans [2]) | diameter of the inhibition zone (DIZ) (Candida parapsilosis [3]) | MIC (Escherichia coli [4]) | diameter of the inhibition zone (DIZ) (Pichia kudriavzevii [5]) | MIC (Cryptococcus neoformans [6]) | MIC (Pichia kudriavzevii [7]) | diameter of the inhibition zone (DIZ) (Candida albicans [8]) | MIC (Streptococcus mutans [9]) | MIC (Streptococcus pyogenes [10]) | MIC (Staphylococcus aureus [11]) | diameter of the inhibition zone (DIZ) (Streptococcus mutans [12]) | diameter of the inhibition zone (DIZ) (Staphylococcus aureus [13]) | diameter of the inhibition zone (DIZ) (Streptococcus pyogenes [14]) | diameter of the inhibition zone (DIZ) (Cryptococcus neoformans [15]) | diameter of the inhibition zone (DIZ) (Pseudomonas aeruginosa [16]) | MIC (Salmonella enterica [17]) | diameter of the inhibition zone (DIZ) (Salmonella enterica [18]) | MIC (Pseudomonas aeruginosa [19]) | diameter of the inhibition zone (DIZ) (Escherichia coli [20]) |
| --- | --- | --- | --- | --- | --- | --- | --- | --- | --- | --- | --- | --- | --- | --- | --- | --- | --- | --- | --- | --- |
| C=CCCCCCCCCC(=O)O[C@H]1CC[C@@]2(C)C(=CC[C@H]3[C@@H]4CC[C@H]([C@H](C)CCCC(C)C)[C@@]4(C)CC[C@@H]32)C1 | 32 µg/mL (≈ 57.9 µM) | 2 µg/mL (≈ 3.62 µM) | 15.1 mm | 128 µg/mL (≈ 231 µM) | 16.1 mm | 128 µg/mL (≈ 231 µM) | 256 µg/mL (≈ 463 µM) | 18.3 mm | 32 µg/mL (≈ 57.9 µM) | 32 µg/mL (≈ 57.9 µM) | 64 µg/mL (≈ 116 µM) | 20.5 mm | 19.8 mm | 19.2 mm | 12.1 mm | 16.2 mm | 128 µg/mL (≈ 231 µM) | 16.4 mm | 32 µg/mL (≈ 57.9 µM) | 16.5 mm |
| CC(C)CCC[C@@H](C)[C@H]1CC[C@H]2[C@@H]3CC=C4C[C@@H](OC(=O)CCCCCCCCC(Br)CBr)CC[C@]4(C)[C@H]3CC[C@]12C (stereo not given in full) | 8 µg/mL (≈ 11.2 µM) | 1 µg/mL (≈ 1.4 µM) | 16.8 mm | 128 µg/mL (≈ 180 µM) | 17.5 mm | 32 µg/mL (≈ 44.9 µM) | 128 µg/mL (≈ 180 µM) | 19.5 mm | 32 µg/mL (≈ 44.9 µM) | 32 µg/mL (≈ 44.9 µM) | 64 µg/mL (≈ 89.8 µM) | 20.3 mm | 19.5 mm | 18.8 mm | 15.9 mm | 15.1 mm | 128 µg/mL (≈ 180 µM) | 16.1 mm | 128 µg/mL (≈ 180 µM) | 16.4 mm |
| C=CCCCCCCCCC(=O)O[C@H]1CC[C@]2(C)[C@H]3CC[C@]4(C)[C@@H]([C@H](C)CCCC(C)C)CC[C@H]4[C@@H]3C[C@@H](Br)[C@@]2(Br)C1 | 256 µg/mL (≈ 359 µM) | 16 µg/mL (≈ 22.4 µM) | 12.8 mm | 128 µg/mL (≈ 180 µM) | 13.4 mm | 128 µg/mL (≈ 180 µM) | 256 µg/mL (≈ 359 µM) | 15.5 mm | 32 µg/mL (≈ 44.9 µM) | 64 µg/mL (≈ 89.8 µM) | 64 µg/mL (≈ 89.8 µM) | 21.5 mm | 20.1 mm | 20.2 mm | 12.7 mm | 17.1 mm | 128 µg/mL (≈ 180 µM) | 16.2 mm | 512 µg/mL (≈ 718 µM) | 19.8 mm |
| CC(C)CCC[C@@H](C)[C@H]1CC[C@H]2[C@@H]3C[C@@H](Br)[C@@]4(Br)C[C@@H](OC(=O)CCCCCCCCC(Br)CBr)CC[C@]4(C)[C@H]3CC[C@]12C (stereo not given in full) | 64 µg/mL (≈ 73.3 µM) | 4 µg/mL (≈ 4.58 µM) | 14.4 mm | 32 µg/mL (≈ 36.7 µM) | 15.5 mm | 64 µg/mL (≈ 73.3 µM) | 512 µg/mL (≈ 587 µM) | 17.8 mm | 32 µg/mL (≈ 36.7 µM) | 32 µg/mL (≈ 36.7 µM) | 32 µg/mL (≈ 36.7 µM) | 23.1 mm | 22.5 mm | 23.3 mm | 13.8 mm | 17.1 mm | 64 µg/mL (≈ 73.3 µM) | 21.3 mm | 64 µg/mL (≈ 73.3 µM) | 20.5 mm |
| CC(C)CCC[C@@H](C)[C@H]1CC[C@H]2[C@@H]3CC=C4C[C@@H](OC(=O)CCCCCCCCC5CO5)CC[C@]4(C)[C@H]3CC[C@]12C (stereo not given in full) | 8 µg/mL (≈ 14.1 µM) | 1 µg/mL (≈ 1.76 µM) | 16.9 mm | 32 µg/mL (≈ 56.2 µM) | 17.8 mm | 32 µg/mL (≈ 56.2 µM) | 128 µg/mL (≈ 225 µM) | 19.6 mm | 32 µg/mL (≈ 56.2 µM) | 32 µg/mL (≈ 56.2 µM) | 32 µg/mL (≈ 56.2 µM) | 21.9 mm | 21.9 mm | 20.5 mm | 15.8 mm | 18.5 mm | 64 µg/mL (≈ 112 µM) | 17.2 mm | 64 µg/mL (≈ 112 µM) | 19.9 mm |
| CCCCCCC(O)C/C=C\CCCCCCCC(=O)O[C@H]1CC[C@@]2(C)C(=CC[C@H]3[C@@H]4CC[C@H]([C@H](C)CCCC(C)C)[C@@]4(C)CC[C@@H]32)C1 (stereo not given in full) | 8 µg/mL (≈ 12 µM) | 1 µg/mL (≈ 1.5 µM) | 17.8 mm | 32 µg/mL (≈ 48 µM) | 18.7 mm | 8 µg/mL (≈ 12 µM) | 64 µg/mL (≈ 95.9 µM) | 20.3 mm | 32 µg/mL (≈ 48 µM) | 32 µg/mL (≈ 48 µM) | 32 µg/mL (≈ 48 µM) | 22.8 mm | 22.1 mm | 22.6 mm | 16.9 mm | 16.5 mm | 32 µg/mL (≈ 48 µM) | 21.1 mm | 128 µg/mL (≈ 192 µM) | 20.4 mm |
| CCCCC/C=C\CCC(O)CCCCCCCC(=O)O[C@H]1CC[C@@]2(C)C(=CC[C@H]3[C@@H]4CC[C@H]([C@H](C)CCCC(C)C)[C@@]4(C)CC[C@@H]32)C1 (stereo not given in full) | 8 µg/mL (≈ 12 µM) | 1 µg/mL (≈ 1.5 µM) | 19.8 mm | 512 µg/mL (≈ 767 µM) | 20.7 mm | 8 µg/mL (≈ 12 µM) | 64 µg/mL (≈ 95.9 µM) | 22.5 mm | 64 µg/mL (≈ 95.9 µM) | 128 µg/mL (≈ 192 µM) | 64 µg/mL (≈ 95.9 µM) | 17.3 mm | 17.1 mm | 16.8 mm | 19.1 mm | 8.8 mm | 128 µg/mL (≈ 192 µM) | 14.8 mm | 128 µg/mL (≈ 192 µM) | 9.6 mm |
